Measurements: patent publication US7776882B2, “2-amino-3,4-dihydro-quinoline derivatives useful as inhibitors of β-secretase (BACE)” (priority 2006, dated 2010)
Where “and” joins values, the source holds several entries; their conditions need not be identical. Equal values may be shown once. Read-outs that look alike come from different tables or passages of the source. One block for each compound: values may come before it.

Columns and labels:
Format in all cases: biochemical
β-secretase (BACE) [1] = target: T1, β-secretase (BACE) (Homo sapiens, UniProt P56817); assay: In Vitro BACE FS1 % Inhibition Assay (Example 10); details: FS1 substrate, values below about 25% (including negative) within noise; for % Inhibition (Example 10) @ 0.3 μM / inhibition at 0.3 µM: 0.3 μM compound; for % Inhibition (Example 10) @ 1 μM / inhibition at 1 µM: 1 μM compound; for % Inhibition (Example 10) @ 3 μM / inhibition at 3 µM: 3 μM compound
T1 construct: purchased Panvera
T1 sequence (P56817 46-501): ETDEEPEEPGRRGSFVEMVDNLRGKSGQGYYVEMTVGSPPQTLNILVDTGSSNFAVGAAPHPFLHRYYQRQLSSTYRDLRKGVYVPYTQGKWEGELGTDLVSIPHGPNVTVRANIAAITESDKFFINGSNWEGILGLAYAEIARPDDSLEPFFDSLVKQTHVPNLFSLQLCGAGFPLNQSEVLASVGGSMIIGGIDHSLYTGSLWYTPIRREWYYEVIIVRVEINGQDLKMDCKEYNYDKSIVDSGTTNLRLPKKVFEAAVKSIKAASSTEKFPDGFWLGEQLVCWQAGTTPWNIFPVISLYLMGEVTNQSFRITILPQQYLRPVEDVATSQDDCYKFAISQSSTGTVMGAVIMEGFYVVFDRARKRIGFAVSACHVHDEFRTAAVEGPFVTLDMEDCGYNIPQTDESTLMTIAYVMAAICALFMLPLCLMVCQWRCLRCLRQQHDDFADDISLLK
Procedure: (§1) The following assay buffers were prepared and used in this assay: (1) enzyme assay buffer (0.05 M sodium acetate, pH5, 0.1% PEG8000 (w/v)), (2) substrate assay buffer (0.05 M sodium acetate, pH5), and (3) compound vehicle (30% DMSO in 50 mM HEPES, pH 7.4).
(§2) The FS1-substrate stock solution was prepared in DMSO as a 10 mg/mL solution. The FS1-substrate working solution was prepared by diluting the 10 mg/mL stock solution with substrate assay buffer to a final concentration of 300 μg/mL. The β-secretase (BACE) working solution was prepared by diluting a 0.83 mg/mL BACE stock solution with enzyme assay buffer to a final concentration of 4 μg/mL.
Test compounds were dissolved in DMSO to 10 mM. Compounds were further diluted in vehicle to various concentrations in the range of 405 μM to 4.05 μM (13.5×final compound concentration in screening plate).
(§3) The screening procedure for this assay was as follows: 15 μL of BACE working solution was pipetted into each well of a 96-well plate. To each well was then pipetted 2 μL of test compound at the selected concentration. Test compound and BACE were then mixed with a pipettor and incubated for 20 min at room temperature. To each well was then added 10 μL of the FS1 substrate working solution. The plates were then incubated for 1 hour at room temperature. The fluorescence for each well was then measured on an LJL analyst (Ex 360 nm/Em 530 nm).
The procedure for the blank (negative control) was as follows. 15 μL of assay buffer was pipetted into each well to be used as a blank control. To each well was then added 2 μL of vehicle and 10 μL of FS1-substrate working solution. The plates were then incubated for 1 hour at room temperature. The fluorescence was measured on an LJL analyst (Ex 360 nm/Em 530 nm).
(§4) The procedure for the positive control was as follows: 15 μL of BACE working solution was pipetted into each well to be used as a positive control. To each well was then pipetted 2 μL of vehicle. Vehicle and BACE were then mixed with a pipettor and incubated for 20 min at room temperature. To each well was then added 10 μL of the FS1 substrate working solution. The plates were then incubated for 1 hour at room temperature. The fluorescence (Fl) was then measured on an LJL analyst (Ex 360 nm/Em 530 nm).
For test compounds, % inhibition was determined at each concentration as follows: […]

β-secretase (BACE) [2] = target: T1, β-secretase (BACE); assay: In Vitro BACE Assay, Ki (Example 11); details: FS1 substrate 50 μM, Km 24 μM
Procedure: The following reagents were used in this assay: sodium acetate, PEG8000 (Sigma), DMSO, HEPES, FS1 substrate [R(AedensE)[…]-(DabcylK)R], β-secretase (BACE) (Panvera), and 96-well plate (HE microplate, Molecular Devices).
as §1, §2
Test compounds were dissolved in DMSO at 10 mM.
as §3, with “The” for “The screening”, “The” for “The plates were then incubated for 1 hour at room temperature. The”, “a Polarstar fluorometer” for “an LJL analyst”, “390” for “360”, “520 nm) for 20 min at room temperature, reading fluorescence at 1 min intervals.” for “530 nm).”
as §4, with “The” for “The plates were then incubated for 1 hour at room temperature. The”, “fluorescence” for “fluorescence (Fl)”, “a Polarstar fluorometer” for “an LJL analyst”, “390” for “360”, “520 nm) for 20 min at room temperature, reading fluorescence at 1 min intervals.” for “530 nm).”
For test compounds, Ki inhibition was determined as follows: For each compound concentration and positive control, rate of cleavage of substrate (Vi, where i=compound concentration in μM) was determined as Δ Fluorescence/Δ time (min). Cleavage rates (Vi) were plotted as a function of inhibitor concentration in μM [I]. The Ki was then determined by fitting the following equation to the graph of [I] vs Vi Y=aVmax/(50+24*(1+X/Ki)),

human BACE-1 = target: T2, human BACE-1 (Homo sapiens, UniProt P56817); assay: In Vitro BACE Assay run by CEREP (Example 14); details: recombinant enzyme, 60 min at 37° C., pH 4.5; for inhibition at 1 µM / % Inhibition 1 μM: 1 μM compound; for % Inhibition 0.3 μM / inhibition at 0.3 µM: 0.3 μM compound
T2 construct: purchased CEREP (contract assay) 761-B
T2 sequence (P56817 46-501): as above
Procedure: This assay was run by CEREP (Catalog Ref. 761-B, Referred to SOP No. 1C131; ERMOLIEFF, J., LOY, J. A., KOELSCH, G. and TANG, J., Proteolytic activation of recombinant pro-memapsin 2 (pro-BACE) studied with new fluorogenic substrates, Biochemistry, (2000) Vol. 39, p. 12450).
More specifically the assay, run at 50 μL in a 96 well plate, evaluated the effect of test compound on the activity of the human BACE-1 quantified by measuring the formation of Mca-S-E-V-N-L-NH2 from Mca-S-E-V-N-L-D-A-E-F-R-K(Dnp)-R-R-NH2, using a recombinant enzyme.
The test compound, reference compound or water (control) was added to a buffer containing 0.09 M sodium acetate (pH 4.5) and 0.25 μg BACE-1. Compound interference with the fluorimetric detection method due to autofluorescence was then checked by measurements at the wavelengths defined to evaluate the enzyme activity. Thereafter, the reaction was initiated by adding 7.5 μM of the substrate Mca-S-E-V-N-L-D-A-E-F-R-K(Dnp)-R-R-NH2 and the mixture was incubated for 60 min at 37° C. For control basal measurement, the substrate was omitted from the reaction mixture. Immediately after the incubation, the fluorescence intensity emitted by the reaction product Mca-S-E-V-N-L-NH2 was measured at λex=320 nm and λem=405 nm using a microplate reader (Ultra, Tecan). The standard inhibitory reference compound was OM99-2, which was tested in each experiment at several concentrations to obtain an inhibition curve from which its IC50 value was calculated.

SMILES: Nc1nc2ccc(Oc3ccccc3)cc2cc1C(CCC(=O)NC12CC3CC(CC(C3)C1)C2)C1CCOCC1 (centres unmarked) [compound 24]
% Inhibition (Example 10) @ 0.3 μM (β-secretase (BACE) [1]): 56%
% Inhibition (Example 10) @ 1 μM (β-secretase (BACE) [1]): 103%
% Inhibition (Example 10) @ 3 μM (β-secretase (BACE) [1]): 132%
Ki (β-secretase (BACE) [2]; read-out: Ki (μM) (Example 11)): 0.066 µM

SMILES: Nc1nc2ccc(Oc3ccccc3)cc2cc1C(CCC(=O)NC12CC3CC(CC(C3)C1)C2)C1CCCCC1 (centres unmarked) [compound 15]
% Inhibition (Example 10) @ 0.3 μM (β-secretase (BACE) [1]): 43%
% Inhibition (Example 10) @ 1 μM (β-secretase (BACE) [1]): 58%
% Inhibition (Example 10) @ 3 μM (β-secretase (BACE) [1]): 78%
Ki (β-secretase (BACE) [2]; read-out: Ki (μM) (Example 11)): 0.28 µM

SMILES: CN(C(=O)CCC(c1cc2cc(Oc3ccccc3)ccc2nc1N)C1CCOCC1)C1CCCCC1 (centres unmarked) [compound 23]
% Inhibition (Example 10) @ 0.3 μM (β-secretase (BACE) [1]; 0.3 µM): 34% and 64%
inhibition at 1 µM (β-secretase (BACE) [1]): 88%
% Inhibition (Example 10) @ 1 μM (β-secretase (BACE) [1]; 1 µM): 93%
inhibition at 3 µM (β-secretase (BACE) [1]): 127%
% Inhibition (Example 10) @ 3 μM (β-secretase (BACE) [1]; 3 µM): 125%
Ki (β-secretase (BACE) [2]; Ki (μM) (Example 11)): 0.12 µM and 0.31 µM
inhibition at 1 µM (human BACE-1): 78%
IC50 (human BACE-1): 420 nM

SMILES: CC(C)=CCCC(C)=CCNC(=O)CCc1cc2cc(Oc3ccccc3)ccc2nc1N [compound 13]
inhibition at 0.3 µM (β-secretase (BACE) [1]): 2%
inhibition at 1 µM (β-secretase (BACE) [1]): 42%
inhibition at 3 µM (β-secretase (BACE) [1]): 88%
Ki (β-secretase (BACE) [2]; Ki (μM) (Example 11)): 0.64 µM

SMILES: Nc1nc2ccc(Oc3ccccc3)cc2cc1CCC(=O)NC12CC3CC(CC(C3)C1)C2 [compound 2]
% Inhibition (Example 10) @ 0.3 μM (β-secretase (BACE) [1]): 45%
% Inhibition (Example 10) @ 1 μM (β-secretase (BACE) [1]): 78%
% Inhibition (Example 10) @ 3 μM (β-secretase (BACE) [1]): 107%
Ki (β-secretase (BACE) [2]; read-out: Ki (μM) (Example 11)): 0.23 µM

SMILES: Nc1nc2ccc(Oc3ccccc3)cc2cc1C(CCC(=O)NC1CN2CCC1CC2)C1CCOCC1 (centres unmarked) [compound 51]
inhibition at 1 µM (human BACE-1): 56%
IC50 (human BACE-1): 1200 nM

SMILES: CN(C(=O)CCC(c1cc2cc(Oc3ccccc3)ccc2nc1N)C1CCCCC1)C1CCCCC1 (centres unmarked) [compound 16]
inhibition at 0.3 µM (β-secretase (BACE) [1]): 29%
inhibition at 1 µM (β-secretase (BACE) [1]): 27%
inhibition at 3 µM (β-secretase (BACE) [1]): 78%
Ki (β-secretase (BACE) [2]; Ki (μM) (Example 11)): 0.44 µM
inhibition at 0.3 µM (human BACE-1): 15%
inhibition at 1 µM (human BACE-1): 46%
IC50 (human BACE-1): 700 nM

SMILES: CN(Cc1ccccc1)C(=O)CCC(c1cc2cc(Oc3ccccc3)ccc2nc1N)C1CCCCC1 (centres unmarked) [compound 38]
% Inhibition 0.3 μM (human BACE-1): 8%
% Inhibition 1 μM (human BACE-1): 9%

SMILES: Nc1nc2ccc(Oc3ccccc3)cc2cc1C(CCC(=O)N(CCN1CCCC1)C1CCCCC1)C1CCCCC1 (centres unmarked) [compound 37]
inhibition at 0.3 µM (human BACE-1): 27%
inhibition at 1 µM (human BACE-1): 81%
IC50 (human BACE-1): 580 nM

SMILES: CC1CCCC(NC(=O)CCc2cc3cc(Oc4ccccc4)ccc3nc2N)C1 (centres unmarked) [compound 3]
inhibition at 0.3 µM (β-secretase (BACE) [1]): 58%
inhibition at 1 µM (β-secretase (BACE) [1]): 89%
inhibition at 3 µM (β-secretase (BACE) [1]): 115%
Ki (β-secretase (BACE) [2]; Ki (μM) (Example 11)): 0.49 µM

SMILES: Nc1nc2ccc(Oc3ccccc3)cc2cc1C(CCC(=O)NCc1nnnn1Cc1ccccc1)C1CCOCC1 (centres unmarked) [compound 31]
inhibition at 0.3 µM (human BACE-1): 32%
inhibition at 1 µM (human BACE-1): 59%
IC50 (human BACE-1): 740 nM

SMILES: CN(C(=O)CC[C@H](c1cc2cc(Oc3ccccc3)ccc2nc1N)C1CCOCC1)C1CCCCC1 [compound 25]
inhibition at 0.3 µM (β-secretase (BACE) [1]): 83%
inhibition at 1 µM (β-secretase (BACE) [1]): 114%
inhibition at 3 µM (β-secretase (BACE) [1]): 126%
Ki (β-secretase (BACE) [2]; Ki (μM) (Example 11)): 0.16 µM

Next, values leading:

% Inhibition 0.3 μM (human BACE-1): 11%
% Inhibition 1 μM (human BACE-1): −3%
SMILES: C=CCCC(c1cc2cc(Oc3ccccc3)ccc2nc1N)C1CCCCC1 (centres unmarked) [compound 509]

inhibition at 1 µM (human BACE-1): 90%
IC50 (human BACE-1): 460 nM
SMILES: Nc1nc2ccc(Oc3ccccc3)cc2cc1C(CCC(=O)N(Cc1c[nH]cn1)C1CCCCC1)C1CCOCC1 (centres unmarked) [compound 53]

inhibition at 1 µM (human BACE-1): 69%
IC50 (human BACE-1): 670 nM
SMILES: CC(C)(C)CN(Cc1ccccn1)C(=O)CCC(c1cc2cc(Oc3ccccc3)ccc2nc1N)C1CCOCC1 (centres unmarked) [compound 69]

% Inhibition 0.3 μM (human BACE-1): 13%
% Inhibition 1 μM (human BACE-1): 54%
IC50 (human BACE-1): 650 nM
SMILES: CN(CC1CCCCC1)C(=O)CCC(c1cc2cc(Oc3ccccc3)ccc2nc1N)C1CCCCC1 (centres unmarked) [compound 40]

% Inhibition 1 μM (human BACE-1): 93%
SMILES: CC(C)(C)CCN(Cc1ncc[nH]1)C(=O)CCC(c1cc2cc(Oc3ccccc3)ccc2nc1N)C1CCOCC1 (centres unmarked) [compound 57]

% Inhibition 1 μM (human BACE-1; 1 µM): 10%
SMILES: Cn1ccnc1CN(CCC(C)(C)C)C(=O)CCC(c1cc2cc(Oc3ccccc3)ccc2nc1N)C1CCCCC1 (centres unmarked) [compound 70]

inhibition at 1 µM (human BACE-1): 83%
IC50 (human BACE-1): 420 nM
SMILES: Cn1ccnc1CN(CC(C)(C)C)C(=O)CCC(c1cc2cc(Oc3ccccc3)ccc2nc1N)C1CCOCC1 (centres unmarked) [compound 55]
